Broadly, the EC50 is the midpoint of the concentration-response curve. A low value points to an effect from little substance. As a reminder, the inhibition is the relative decrease from the control value, in per cent.

This is an account of results in paper PMC7178174, “Residues in Transmembrane Segments of the P2X4 Receptor Contribute to Channel Function and Ethanol Sensitivity” (International Journal of Molecular Sciences, 2020).

Residue numbers refer to the chain shown, from its start.

Holding throughout (format): cell-based
Test [1] deals with T1, rat P2X4R (P2X4 receptor) (Rattus norvegicus, UniProt P51577).
T1 construct: gene P2rx4; full-length cDNA in pcDNA3, cRNA expressed in Xenopus laevis oocytes; homomeric trimer; ~60 kDa band
T1 sequence (P51577 1-388): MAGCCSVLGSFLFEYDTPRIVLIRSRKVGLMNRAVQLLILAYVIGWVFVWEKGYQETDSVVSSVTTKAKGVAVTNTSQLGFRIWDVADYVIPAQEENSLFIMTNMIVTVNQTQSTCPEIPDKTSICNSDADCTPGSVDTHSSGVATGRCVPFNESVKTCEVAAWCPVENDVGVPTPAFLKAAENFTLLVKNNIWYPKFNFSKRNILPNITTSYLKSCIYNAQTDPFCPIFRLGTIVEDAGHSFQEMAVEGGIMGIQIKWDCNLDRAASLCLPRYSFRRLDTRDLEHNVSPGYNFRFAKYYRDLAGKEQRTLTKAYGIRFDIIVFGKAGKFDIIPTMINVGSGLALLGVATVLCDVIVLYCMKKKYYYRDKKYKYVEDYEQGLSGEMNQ
The experiment in a line: two-electrode voltage clamp, Xenopus oocytes, ATP-gated current. The source says: (§1) two-electrode voltage clamp, Xenopus oocytes, ATP-gated current on rat P2X4R (P2X4 receptor)
Background: Two-electrode voltage clamp is typically applied to oocytes expressing channels or transporters.

In test [2] the target is T2, rat P2X4R (P2X4 receptor) (Rattus norvegicus, UniProt P51577, R33A).
T2 construct: gene P2rx4; full-length cDNA in pcDNA3, cRNA expressed in Xenopus laevis oocytes; homomeric trimer; ~60 kDa band
T2 sequence (P51577 1-388 R33A): T1 sequence (P51577 1-388) with R33A
The test is described as above.
Description: as §1

Test [3] concerns the target T3, rat P2X4R (P2X4 receptor) (Rattus norvegicus, UniProt P51577, R33L).
T3 construct: gene P2rx4; full-length cDNA in pcDNA3, cRNA expressed in Xenopus laevis oocytes; homomeric trimer; ~60 kDa band
T3 sequence (P51577 1-388 R33L): T1 sequence (P51577 1-388) with R33L
The description is as above.
Description: as §1

Test [4] deals with T4, rat P2X4R (P2X4 receptor) (Rattus norvegicus, UniProt P51577, V49L).
T4 construct: gene P2rx4; full-length cDNA in pcDNA3, cRNA expressed in Xenopus laevis oocytes; homomeric trimer; ~60 kDa band
T4 sequence (P51577 1-388 V49L): T1 sequence (P51577 1-388) with V49L
The test is described as above.
Description: as §1

Test [5] has as its target T5, rat P2X4R (P2X4 receptor) (Rattus norvegicus, UniProt P51577, A34W).
T5 construct: gene P2rx4; full-length cDNA in pcDNA3, cRNA expressed in Xenopus laevis oocytes; homomeric trimer; ~60 kDa band
T5 sequence (P51577 1-388 A34W): T1 sequence (P51577 1-388) with A34W
Described as above.
Description: as §1

Test [6] addresses T6, rat P2X4R (P2X4 receptor) (Rattus norvegicus, UniProt P51577, R33S).
T6 construct: gene P2rx4; full-length cDNA in pcDNA3, cRNA expressed in Xenopus laevis oocytes; homomeric trimer; ~60 kDa band
T6 sequence (P51577 1-388 R33S): T1 sequence (P51577 1-388) with R33S
Described as above.
Description: as §1

The target of test [7] is T7, rat P2X4R (P2X4 receptor) (Rattus norvegicus, UniProt P51577, R33K).
T7 construct: gene P2rx4; full-length cDNA in pcDNA3, cRNA expressed in Xenopus laevis oocytes; homomeric trimer; ~60 kDa band
T7 sequence (P51577 1-388 R33K): T1 sequence (P51577 1-388) with R33K
The description is as above.
Description: as §1

In test [8] the target is T8, rat P2X4R (P2X4 receptor) (Rattus norvegicus, UniProt P51577, W46A).
T8 construct: gene P2rx4; full-length cDNA in pcDNA3, cRNA expressed in Xenopus laevis oocytes; homomeric trimer; ~60 kDa band
T8 sequence (P51577 1-388 W46A): T1 sequence (P51577 1-388) with W46A
Described as above.
Description: as §1

The target of test [9] is T9, rat P2X4R (P2X4 receptor) (Rattus norvegicus, UniProt P51577, F48A).
T9 construct: gene P2rx4; full-length cDNA in pcDNA3, cRNA expressed in Xenopus laevis oocytes; homomeric trimer; ~60 kDa band
T9 sequence (P51577 1-388 F48A): T1 sequence (P51577 1-388) with F48A
Described as above.
Description: as §1

The target of test [10] is T10, rat P2X4R (P2X4 receptor) (Rattus norvegicus, UniProt P51577, L37A).
T10 construct: gene P2rx4; full-length cDNA in pcDNA3, cRNA expressed in Xenopus laevis oocytes; homomeric trimer; ~60 kDa band
T10 sequence (P51577 1-388 L37A): T1 sequence (P51577 1-388) with L37A
Described as above.
Description: as §1

Test [11] deals with T11, rat P2X4R (P2X4 receptor) (Rattus norvegicus, UniProt P51577, V49G).
T11 construct: gene P2rx4; full-length cDNA in pcDNA3, cRNA expressed in Xenopus laevis oocytes; homomeric trimer; ~60 kDa band
T11 sequence (P51577 1-388 V49G): T1 sequence (P51577 1-388) with V49G
Described as above.
Description: as §1

Test [12] has as its target T1, rat P2X4R (P2X4 receptor). The test can be described thus: two-electrode voltage clamp, Xenopus oocytes, inhibition of ATP-gated current. The conditions noted are these: read-out: % inhibition at 100 mM.

As for `Nc1ncnc2c1ncn2[C@@H]1O[C@H](COP(=O)(O)OP(=O)(O)OP(=O)(O)O)[C@@H](O)[C@H]1O` [ATP], the 50% effective concentration (EC50) worked out at 5.74 ± 0.45 µM in [1]; 7.04 ± 0.51 µM in test [2]; 5.06 ± 0.7 µM in test [3]; 10.6 ± 1.3 µM in [4]; 6.5 ± 1.02 µM in test [5]; 4.94 ± 1.09 µM in test [6]. The EC50 in test [7] was 6.33 ± 0.93 µM; in [8] it was 3.58 ± 0.57 µM; in test [9], 3.53 ± 0.73 µM; in test [10] it was 8.91 ± 0.84 µM; in test [11], 9.6 ± 0.9 µM.

As to `CCO` [ethanol], the inhibition at 100000 µM in test [12] was 44 ± 4%.
